{"source": "patent US9527827B2", "about": "“C-9 oxygen functionalized labdane derivates” (COUNCIL OF SCIENTIFIC & INDUSTRIAL RESEARCH, priority 2011, dated 2016)", "key": {"[1]": {"test_system": "Mycobacterium tuberculosis H37Ra", "assay": "In vitro anti-mycobacterial activity against M. tuberculosis", "format": "cell-based", "details": "for IC50 / IC90: Mycobacterium tuberculosis, M. tuberculosis H37Ra; for IC50 / IC90 / Inhibition of / anti-tubercular activity against Mycobacterium tuberculosis (in words): in vitro", "protocol": "All the isolated compounds and whole acetone extract were tested for their in vitro effect against Mycobacterium tuberculosis H37Ra."}, "Mycobacterium smegmatis": {"test_system": "Mycobacterium smegmatis", "assay": "Specificity test against M. smegmatis (XTT reduction microplate assay)", "format": "cell-based"}, "Escherichia coli": {"test_system": "Escherichia coli", "assay": "Specificity test against E. coli (growth, absorbance at 620 nm)", "format": "cell-based"}, "M. tuberculosis H37Rv": {"test_system": "M. tuberculosis H37Rv", "details": "cited from earlier work"}, "[2]": {"test_system": "prostaglandin-induced contractions", "details": "cited from earlier work"}}, "note": "“Also recorded” adds a separate entry of the source.", "data": [{"compound": "C[C@@H]1CC[C@H]2C(C)(C)CCC[C@]2(C)[C@@]1(O)CC/C(=C/CO)CO", "note": "[Compound 3]", "values": [{"measurement": "IC50", "setting": "[1]", "value": 9.8, "unit": "µg/mL"}, {"measurement": "IC90", "setting": "[1]", "value": 46.5, "unit": "µg/mL"}, {"measurement": "Inhibition of / anti-tubercular activity against Mycobacterium tuberculosis (in words)", "setting": "[1]", "value": "significant inhibition; also recorded: effective"}, {"measurement": "Specificity / selectivity for M. tuberculosis (in words)", "setting": "[1]; versus E. coli and M. smegmatis", "value": "specifically active; also recorded: selective inhibitors"}, {"measurement": "Percent inhibition, M. smegmatis", "setting": "Mycobacterium smegmatis; tested at IC90 found against M. tuberculosis, mean ± S.D. of three experiments", "value": "30.57 ± 3.58", "unit": "%"}, {"measurement": "Percent inhibition, E. coli", "setting": "Escherichia coli; tested at IC90 found against M. tuberculosis, 6 h incubation, mean ± S.D. of three experiments", "value": "11.47 ± 1.65", "unit": "%"}]}, {"compound": "C=C[C@](C)(O)CC[C@@H]1[C@@]2(C)CCCC(C)(C)[C@H]2CC[C@@]1(C)O", "note": "[Compound 4]", "values": [{"measurement": "IC50", "setting": "[1]", "value": 5.95, "unit": "µg/mL"}, {"measurement": "IC90", "setting": "[1]", "value": 10.8, "unit": "µg/mL"}, {"measurement": "Inhibition of / anti-tubercular activity against Mycobacterium tuberculosis (in words)", "setting": "[1]", "value": "potent anti-tubercular activity; also recorded: significant inhibition; also recorded: effective"}]}, {"compound": "NNC(=O)c1ccncc1", "note": "[Isoniazid, reference compound]", "values": [{"measurement": "IC90", "setting": "[1]", "value": "0.05 ± 0.003", "unit": "µg/mL"}]}, {"compound": "CO[C@H]1/C=C/O[C@@]2(C)Oc3c(C)c(O)c4c(O)c(c(/C=N/N5CCN(C)CC5)c(O)c4c3C2=O)NC(=O)/C(C)=C\\C=C\\[C@H](C)[C@H](O)[C@@H](C)[C@@H](O)[C@@H](C)[C@H](OC(C)=O)[C@@H]1C", "note": "[Rifampicin, reference compound]", "values": [{"measurement": "IC90", "setting": "Mycobacterium smegmatis; Mycolicibacterium smegmatis, reference drug, value is IC90, not percent inhibition", "value": "0.2 ± 0.03", "unit": "µg/mL"}, {"measurement": "IC90", "setting": "Escherichia coli; Escherichia coli, reference drug, value is IC90, not percent inhibition", "value": "0.5 ± 0.04", "unit": "µg/mL"}]}, {"compound": "C=CC(=C)CCC1C(=C)CC[C@H]2[C@@](C)(C(=O)O)[C@H](OC(C)=O)CC[C@]12C", "note": "(some centres unmarked) [juniperexcelsic acid]", "values": [{"measurement": "MIC", "setting": "M. tuberculosis H37Rv", "value": 14.4, "unit": "µg/mL"}]}, {"compound": "C=C[C@]1(C)C=C2C(=O)C[C@H]3C(C)(C)[C@@H](O[C@@H]4O[C@H](CO)[C@@H](O)[C@H](O)[C@H]4O[C@@H]4O[C@H](CO[C@@H]5O[C@H](CO)[C@@H](O)[C@H](O)[C@H]5O)[C@@H](O)[C@H](O)[C@H]4O)CC[C@]3(C)[C@H]2CC1", "note": "[leucasperosides A, leucasperoside A]", "values": [{"measurement": "Inhibition of prostaglandin-induced contractions (in words)", "setting": "[2]", "value": "showed inhibition"}]}, {"compound": "C=C[C@]1(C)C=C2C(=O)C[C@H]3C(C)(C)[C@@H](O[C@@H]4O[C@H](CO)[C@@H](O)[C@H](O)[C@H]4O[C@@H]4O[C@H](CO)[C@@H](O)[C@H](O)[C@H]4O)CC[C@]3(C)[C@H]2CC1", "note": "[leucasperosides B, leucasperoside B]", "values": [{"measurement": "Inhibition of prostaglandin-induced contractions (in words)", "setting": "[2]", "value": "showed inhibition"}]}, {"compound": "leucasperone A", "values": [{"measurement": "Inhibition of prostaglandin-induced contractions (in words)", "setting": "[2]", "value": "showed inhibition"}]}, {"compound": "linifolioside", "values": [{"measurement": "Inhibition of prostaglandin-induced contractions (in words)", "setting": "[2]", "value": "showed inhibition"}]}]}
